In BindingDB's records for doi:10.1021/np100503q (The Ohio State University, 2010):

Target: Transcription factor p65 (Human, UniProt Q04206)
Assay: Inhibition of NF-kappaB p65 isolated from nuclear extract of human HeLa cells assessed as blockade of binding to biotinylated consesus sequence by chemiluminescence assay

Sequence of Transcription factor p65 (Q04206 whole entry): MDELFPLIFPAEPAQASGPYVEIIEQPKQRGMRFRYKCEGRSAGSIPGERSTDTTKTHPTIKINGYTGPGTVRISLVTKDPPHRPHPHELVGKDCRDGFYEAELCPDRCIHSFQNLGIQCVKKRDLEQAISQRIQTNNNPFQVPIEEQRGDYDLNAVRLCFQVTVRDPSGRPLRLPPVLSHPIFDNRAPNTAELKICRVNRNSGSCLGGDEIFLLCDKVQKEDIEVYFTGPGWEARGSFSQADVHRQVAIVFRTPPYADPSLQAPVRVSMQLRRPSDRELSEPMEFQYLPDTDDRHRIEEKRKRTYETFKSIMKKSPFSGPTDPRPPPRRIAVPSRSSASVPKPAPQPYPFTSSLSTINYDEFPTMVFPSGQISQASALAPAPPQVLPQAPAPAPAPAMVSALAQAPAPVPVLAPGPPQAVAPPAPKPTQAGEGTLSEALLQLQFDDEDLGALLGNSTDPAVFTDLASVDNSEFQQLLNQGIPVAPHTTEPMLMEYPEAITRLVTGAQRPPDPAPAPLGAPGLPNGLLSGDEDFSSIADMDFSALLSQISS

Molecule `COC(=O)[C@H]1[C@@H](O)[C@@]2(O)c3c(OC)cc(O[C@@H]4O[C@@H]([C@H](O)CO)CO[C@@H]4OC)cc3O[C@@]2(c2ccc(OC)cc2)[C@@H]1c1ccccc1` [5'''-episilvestrol] has an IC50 of over 20 µM.
